Experimental data reported in ChEMBL document CHEMBL2029220, “Oxaphosphinanes: new therapeutic perspectives for glioblastoma” (J Med Chem, 2012).
Active and inactive are the calls of the source. The calls are words filed in the database; no cut-off is given here.

Tests used:
C6 [1] = test: Antiproliferative activity against rat C6 cells at 0.1 to 10 uM after 48 hrs by neutral red incorporation assay; format: functional, cell-based
[2] = Cytotoxicity against mouse astrocytes assessed as decrease in cell viability at 1 to 10 uM after 48 hrs by propidium iodide incorporation assay; format: cell-based; details: astrocyte
[3] = Cytotoxicity against mouse astrocytes assessed as decrease in cell viability at 0.1 uM after 48 hrs by propidium iodide incorporation assay; format: cell-based; details: astrocyte
[4] = Cytotoxicity against mouse astrocytes assessed as decrease in cell viability at 1 to 10 uM after 48 hrs by neutral red incorporation assay; format: cell-based; details: astrocyte
[5] = Cytotoxicity against mouse astrocytes assessed as decrease in cell viability at 0.1 uM after 48 hrs by Hoechst 33342 staining; format: cell-based; details: astrocyte
[6] = Cytotoxicity against mouse astrocytes assessed as decrease in cell viability at 0.1 uM after 48 hrs by neutral red incorporation assay; format: cell-based; details: astrocyte
[7] = Cytotoxicity against mouse astrocytes assessed as decrease in cell viability at 1 to 100 uM after 48 hrs by neutral red incorporation assay; format: cell-based; details: astrocyte
C6 [8] = test: Antiproliferative activity against rat C6 cells at 100 uM after 48 hrs by neutral red incorporation assay; format: functional, cell-based
SF-295 = test: Antiproliferative activity against human SF295 cells at 10 uM after 24 hrs by SRB assay; format: functional, cell-based
[9] = Cytotoxicity against mouse astrocytes assessed as decrease in cell viability at 1 to 100 uM after 48 hrs by Hoechst 33342 staining; format: cell-based; details: astrocyte
[10] = Cytotoxicity against mouse astrocytes assessed as decrease in cell viability at 1 to 100 uM after 48 hrs by propidium iodide incorporation assay; format: cell-based; details: astrocyte
SNB-75 = test: Antiproliferative activity against human SNB75 cells at 10 uM after 24 hrs by SRB assay; format: functional, cell-based
C6 [11] = test: Antiproliferative activity against rat C6 cells after 48 hrs by MTT assay; format: functional, cell-based; details: C6, 48 h
C6 [12] = test: Cytotoxicity against rat C6 cells at 10 uM after 1 hr by LDH Assay; format: functional, cell-based
C6 [13] = test: Antiproliferative activity against rat C6 cells at 0.1 to 100 uM after 48 hrs by neutral red incorporation assay; format: functional, cell-based
MDA-MB-231 [14] = test: Antiproliferative activity against human MDA-MB-231 cells assessed as higher lowest toxic concentration after 48 hrs by MTT assay relative to control; format: functional
A-431 [15] = test: Antiproliferative activity against human A431 cells at 10 uM after 48 hrs by MTT assay relative to control; format: functional
Caco-2 [16] = test: Antiproliferative activity against human Caco2 cells assessed as higher lowest toxic concentration after 48 hrs by MTT assay relative to control; format: functional
C6 [17] = test: Antiproliferative activity against rat C6 cells assessed as higher lowest toxic concentration after 48 hrs by MTT assay relative to control; format: functional
MDA-MB-435 [18] = test: Antiproliferative activity against human MDA-MB-435 cells at 10 uM after 48 hrs by MTT assay relative to control; format: functional
NCI-H522 = test: Antiproliferative activity against human NCI-H522 cells at 10 uM after 24 hrs by SRB assay; format: functional, cell-based
SK-OV-3 = test: Antiproliferative activity against human SKOV3 cells at 10 uM after 24 hrs by SRB assay; format: functional, cell-based
MDA-MB-468 = test: Antiproliferative activity against human MDA-MB-468 cells at 10 uM after 24 hrs by SRB assay; format: functional, cell-based
DU-145 [19] = test: Antiproliferative activity against human DU145 cells assessed as higher lowest toxic concentration after 48 hrs by MTT assay relative to control; format: functional
Huh-7 [20] = test: Antiproliferative activity against human HuH7 cells assessed as higher lowest toxic concentration after 48 hrs by MTT assay relative to control; format: functional
B16-F10 [21] = test: Antiproliferative activity against mouse B16F10 cells assessed as higher lowest toxic concentration after 48 hrs by MTT assay relative to control; format: functional
B16-F10 [22] = test: Antiproliferative activity against mouse B16F10 cells at 10 uM after 48 hrs by MTT assay relative to control; format: functional
MDA-MB-435 [23] = test: Antiproliferative activity against human MDA-MB-435 cells assessed as higher lowest toxic concentration after 48 hrs by MTT assay relative to control; format: functional
C6 [24] = test: Antiproliferative activity against rat C6 cells at 10 uM after 48 hrs by MTT assay relative to control; format: functional
MDA-MB-231 [25] = test: Antiproliferative activity against human MDA-MB-231 cells at 10 uM after 48 hrs by MTT assay relative to control; format: functional
U-251 = test: Antiproliferative activity against human U251 cells at 10 uM after 24 hrs by SRB assay; format: functional, cell-based
Huh-7 [26] = test: Antiproliferative activity against human HuH7 cells at 10 uM after 48 hrs by MTT assay relative to control; format: functional
HOP-62 = test: Antiproliferative activity against human HOP62 cells at 10 uM after 24 hrs by SRB assay; format: functional, cell-based
UO-31 = test: Antiproliferative activity against human UO31 cells at 10 uM after 24 hrs by SRB assay; format: functional; details: UO-31, 24 h, read-out: GI
Caco-2 [27] = test: Antiproliferative activity against human Caco2 cells at 10 uM after 48 hrs by MTT assay relative to control; format: functional
SF-268 = test: Antiproliferative activity against human SF268 cells at 10 uM after 24 hrs by SRB assay; format: functional, cell-based
LOX IMVI = test: Antiproliferative activity against human LOXIMVI cells at 10 uM after 24 hrs by SRB assay; format: functional; details: read-out: GI
DU-145 [28] = test: Antiproliferative activity against human DU145 cells at 10 uM after 48 hrs by MTT assay relative to control; format: functional
A-431 [29] = test: Antiproliferative activity against human A431 cells assessed as higher lowest toxic concentration after 48 hrs by MTT assay relative to control; format: functional
[30] = Cytotoxicity against mouse astrocytes assessed as decrease in cell viability after 48 hrs by Hoechst 33342 staining; format: cell-based; details: astrocyte
[31] = Cytotoxicity against mouse astrocytes assessed as decrease in cell viability at 10 uM after 48 hrs by neutral red incorporation assay; format: cell-based; details: astrocyte
[32] = Cytotoxicity against mouse astrocytes assessed as decrease in cell viability after 48 hrs by propidium iodide incorporation assay; format: cell-based; details: astrocyte

CC[C@]1(O)C[C@H]2CN(CCc3c([nH]c4ccccc34)[C@@](C(=O)OC)(c3cc4c(cc3OC)N(C=O)[C@H]3[C@@](O)(C(=O)OC)[C@H](OC(C)=O)[C@]5(CC)C=CCN6CC[C@]43[C@@H]65)C2)C1 [VINCRISTINE]
Activity (C6 [1]): Active | Activity [2]: Toxic | Activity [3]: Toxic | Activity [4]: 60% | Activity [5]: Toxic | Activity [6]: Toxic

Cn1nnc2c(C(N)=O)ncn2c1=O [TEMOZOLOMIDE]
Activity [7]: Non-toxic | Activity (C6 [8]): Active | growth inhibition (GI) (SF-295): Active | Activity [9]: Non-toxic | Activity [10]: Non-toxic | growth inhibition (GI) (SNB-75): Active

O=NN(CCCl)C(=O)NCCCl [CARMUSTINE]
Activity (C6 [1]): Active | Activity [7]: Non-toxic | Activity [9]: Non-toxic | Activity [10]: Non-toxic

O=[P@@]1(c2ccccc2)O[C@H](COCc2ccccc2)[C@@H](OCc2ccccc2)[C@H](OCc2ccccc2)[C@H]1NCc1ccccc1
EC50 (C6 [11]): 2.68 µM

Cc1ccc([P@@]2(=O)O[C@H](COCc3ccccc3)[C@@H](OCc3ccccc3)[C@H](OCc3ccccc3)[C@H]2O)cc1
EC50 (C6 [11]): > 25 µM

Cc1cccc([P@]2(=O)O[C@H](COCc3ccccc3)[C@@H](OCc3ccccc3)[C@H](OCc3ccccc3)[C@@H]2O)c1
EC50 (C6 [11]): > 25 µM

COc1cccc([P@@]2(=O)O[C@H](COCc3ccccc3)[C@@H](OCc3ccccc3)[C@H](OCc3ccccc3)[C@H]2O)c1
EC50 (C6 [11]): > 25 µM

O=[P@@]1(c2ccccc2)O[C@H](COCc2ccccc2)[C@@H](OCc2ccccc2)[C@H](OCc2ccccc2)[C@@H]1O
Activity (C6 [12]): Active | Activity (C6 [13]): Active | Activity (MDA-MB-231 [14]): 5 µM | Activity (A-431 [15]): 33% | EC50 (C6 [11]): 23.8 µM | Activity (Caco-2 [16]): 5 µM | Activity (C6 [17]): 0.1 µM | Activity (MDA-MB-435 [18]): 43% | growth inhibition (GI) (NCI-H522): Active | growth inhibition (GI) (SK-OV-3): Active | growth inhibition (GI) (MDA-MB-468): Active | Activity (DU-145 [19]): 1 µM | Activity (Huh-7 [20]): 0.1 µM | Activity (B16-F10 [21]): 25 µM | Activity (B16-F10 [22]): inactive | Activity (MDA-MB-435 [23]): 0.1 µM | Activity (C6 [24]): 31% | Activity (MDA-MB-231 [25]): 18% | growth inhibition (GI) (U-251): Active | Activity (Huh-7 [26]): 55% | growth inhibition (GI) (HOP-62): Active | inhibition of growth at 10 µM (UO-31): 50% | Activity (Caco-2 [27]): 15% | growth inhibition (GI) (SF-268): Active | inhibition of growth at 10 µM (LOX IMVI): 45% | Activity (DU-145 [28]): 14% | Activity (A-431 [29]): 5 µM

COc1ccc([P@@]2(=O)O[C@H](COCc3ccccc3)[C@@H](OCc3ccccc3)[C@H](OCc3ccccc3)[C@H]2O)cc1
EC50 (C6 [11]): 15 µM

COc1ccc([P@]2(=O)O[C@H](COCc3ccccc3)[C@@H](OCc3ccccc3)[C@H](OCc3ccccc3)[C@H]2O)cc1
EC50 (C6 [11]): 8.4 µM

COc1cccc([P@]2(=O)O[C@H](COCc3ccccc3)[C@@H](OCc3ccccc3)[C@H](OCc3ccccc3)[C@@H]2O)c1
EC50 (C6 [11]): > 25 µM

O=[P@]1(c2cccc(C(F)(F)F)c2)O[C@H](COCc2ccccc2)[C@@H](OCc2ccccc2)[C@H](OCc2ccccc2)[C@@H]1O
EC50 (C6 [11]): > 25 µM

CC(=O)O[C@H]1C(=O)[C@@]2(C)[C@H]([C@H](OC(=O)c3ccccc3)[C@]3(O)C[C@H](OC(=O)[C@H](O)[C@@H](NC(=O)c4ccccc4)c4ccccc4)C(C)=C1C3(C)C)[C@]1(OC(C)=O)CO[C@@H]1C[C@@H]2O [PACLITAXEL]
Activity [30]: Dose-dependent effect | Activity (C6 [1]): Active | Activity [31]: 28% | growth inhibition (GI) (SF-295): Active | Activity [32]: Dose-dependent effect | growth inhibition (GI) (SNB-75): Active

O=C(O[C@@H]1[C@@H](OCc2ccccc2)[C@H](OCc2ccccc2)[C@@H](COCc2ccccc2)O[P@@]1(=O)c1ccccc1)c1ccccc1
EC50 (C6 [11]): > 25 µM

COc1ccc([P@@]2(=O)O[C@H](COCc3ccccc3)[C@@H](OCc3ccccc3)[C@H](OCc3ccccc3)[C@@H]2O)cc1
EC50 (C6 [11]): 15 µM

Cc1ccc([P@]2(=O)O[C@H](COCc3ccccc3)[C@@H](OCc3ccccc3)[C@H](OCc3ccccc3)[C@H]2O)cc1
EC50 (C6 [11]): > 25 µM

CSC(=S)O[C@H]1[C@@H](OCc2ccccc2)[C@H](OCc2ccccc2)[C@@H](COCc2ccccc2)O[P@@]1(=O)c1ccccc1
EC50 (C6 [11]): > 25 µM

[N-]=[N+]=N[C@@H]1[C@@H](OCc2ccccc2)[C@H](OCc2ccccc2)[C@@H](COCc2ccccc2)O[P@@]1(=O)c1ccccc1
EC50 (C6 [11]): 16.7 µM

N[C@@H]1[C@@H](OCc2ccccc2)[C@H](OCc2ccccc2)[C@@H](COCc2ccccc2)O[P@@]1(=O)c1ccccc1
EC50 (C6 [11]): 16.3 µM
